Assay results reported in US20240041976A1, “COMPOSITION AND USE” (priority 2020, published 2024).

Key:
Assay type in all cases: cell-based, Staphylococcus aureus
[1] = test system: S. aureus ATTC 33591; assay: Planktonic cell growth inhibition assay (MIC50, liquid culture)
Protocol: (§1) Growth inhibition assays were performed in 96-well microtiter plates as described previously (Chi and Holo, 2018, supra). Briefly, 135 μl of TSB were dispensed in each well of a microtiter plate (according to the number of bacterial strains tested) except in the wells of the first row. The antimicrobials were diluted in TSB to working concentrations in a final volume of 285 μl and dispensed in the wells of the first row. The working concentrations were 100 μg/μl for garvicin KS, 10 μg/μl for micrococcin P1 and 1 mg/ml for penicillin G. From the first row, 150 μl of the antimicrobials were then serially diluted (two-fold dilutions) in a sequential fashion until the last row of the plate. Finally, 15 μl of a fresh O/N culture of each strain were added in the appropriate wells to reach a final volume of 150 μl in each well. The plates were then incubated at 37° C. for 24 h. The growth inhibition was expressed as minimum inhibitory concentration (MIC50), which refers to the minimum concentration of the antimicrobial needed to reduce at least 50% of the microbial growth compared to the untreated control. The MIC50 was assessed by optical density readings at 600 nm (O.D.600).
(§2) Synergistic interactions between antimicrobials were determined using the fractional inhibition concentration (FIC). The FIC values were calculated as follows: the sum of the FIC =FICa+FICb+FICc, where the FICa means MIC of A in combination/MIC of A alone, FICb means MIC of B in combination/MIC of B, and FICc means MIC of C in combination/MIC of C alone. Effects were considered as synergistic if FIC was ≤0.5 for two components mixture and ≤0.75 for three components mixture.

[2] = test system: S. aureus Newman; assay: as above
Protocol: as §1, §2

[3] = test system: S.a. 3255; assay: as above
Protocol: as §1, §2

[4] = test system: S. aureus ATTC 29213; assay: as above
Protocol: as §1, §2

[5] = test system: S. aureus ATTC 10832; assay: as above
Protocol: as §1, §2

[6] = test system: S. aureus USA 300; assay: as above
Protocol: as §1, §2

[7] = test system: S. aureus LMG3265; assay: AAMP assay (MIC), single components and formulation mixture; conditions: Staphylococcus aureus, LMG3265, 24 h; read-out: MIC, single component
Protocol: (§3) Antimicrobial activity was measured using the AAMP assay (Wiegand et al., 2008, Nat. Protoc., Vol. 3(2), p 163-175).
(§4) Three-component synergy was assessed by mixing the three components (100 μg of PenG, 50 μg of GarKS and 2.5 μg of MP1) into one well of a microtiter plate, compared with activity of individual antimicrobials on the same plate. The fractional inhibition concentration (FIC) which was used to define synergy was calculated as set forth in Example 1.

[8] = test system: MRSA USA-300; assay: AAMP assay and checkerboard synergy; conditions: MRSA USA-300
Protocol: as §3
(§5) Synergy testing was done with a microtiter plate checkerboard assay as previously described (Orhan et al., 2005, J. Clin. Microbiol., Vol. 43(1), p 140-143). Briefly, equal amounts of antimicrobial A were applied on microtiter plate 1 in wells A1-H1 and then diluted two-fold to wells 2-12. Similarly, equal amounts of antimicrobial B were applied on microtiter plate 2 in wells A1-A12 and diluted two-fold in wells B-H. Volumes of 50 μl of antimicrobial A from each well of microtiter plate 1 were transferred into microtiter plate 3, except for wells H1-H12. Similarly, the same volumes were transferred from microtiter plate 2 into plate 3, except for wells A1-A8. A 100 μl volume of 25 times diluted ON bacterial culture of MRSA was transferred into each well of plate 3. A 50 μl volume of pure broth was added into each well in lines H1-H12 and A1-A8 which were used to estimate MIC values of pure substances (blank).
as §4

[9] = test system: MRSA 43484; assay: AAMP assay and checkerboard synergy; conditions: MRSA 43484
Protocol: as §3, §5, §4

[10] = test system: MRSA ATCC 33591-lux; assay: AAMP assay and checkerboard synergy; conditions: MRSA ATCC 33591-lux
Protocol: as §3, §5, §4

[11] = test system: three MRSA strains (ATCC33591-lux, USA-300 and MRSA 43484); assay: AAMP assay and checkerboard synergy, summary
Protocol: as §5, with “Briefly,” for “Synergy testing was done with a microtiter plate checkerboard assay as previously described (Orhan et al., 2005, J. Clin. Microbiol., Vol. 43(1), p 140-143). Briefly,”, “A 100 μl volume of 25 times diluted ON bacterial culture of MRSA was transferred into each well of plate 3.” left out
Three-component synergy was assessed by mixing the three components (100 μg of PenG, 50 μg of GarKS and 2.5 μg of MP1) into one well of a microtiter plate, compared with activity of individual antimicrobials on the same plate.

[12] = garvicin KS + micrococcin P1 + penicillin G
[13] = Staphylococcus aureus, individual component, read-out: MIC50
[14] = Staphylococcus aureus, 24 h, read-out: MIC, single antimicrobial
[15] = triple combination PenG, GarKS and MP1

C/C=C(\NC(=O)c1csc(-c2csc(-c3ccc4c(n3)-c3csc(n3)[C@H]([C@@H](C)O)NC(=O)c3csc(n3)[C@H](C(C)C)NC(=O)c3csc(n3)/C(=C/C)NC(=O)[C@H]([C@@H](C)O)NC(=O)c3csc-4n3)n2)n1)C(=O)NC[C@@H](C)O [MP1, micrococcin P1]
MIC50 ([1]; Staphylococcus aureus, ATTC33591, individual component, read-out: MIC50): > 10 µg/mL | MIC50 of the component in combination ([1]; garvicin KS + micrococcin P1): 1.3 µg/mL | MIC50 of the component in combination [1, 12]: 1.3 µg/mL | MIC50 [2, 13]: 0.313 µg/mL | MIC50 of the component in combination ([2]; garvicin KS + micrococcin P1): 0.313 µg/mL | MIC50 of the component in combination [2, 12]: <0.078 µg/mL | MIC50 [3, 13]: 10 µg/mL | MIC50 of the component in combination ([3]; garvicin KS + micrococcin P1): 1.3 µg/mL | MIC50 of the component in combination [3, 12]: <0.078 µg/mL | MIC50 ([4]; Staphylococcus aureus, ATTC29213, individual component, read-out: MIC50): 2.5 µg/mL | MIC50 of the component in combination ([4]; garvicin KS + micrococcin P1): 1.3 µg/mL | MIC50 of the component in combination [4, 12]: 0.31 µg/mL | MIC50 ([5]; Staphylococcus aureus, ATTC10832, individual component, read-out: MIC50): 0.63 µg/mL | MIC50 of the component in combination ([5]; garvicin KS + micrococcin P1): 0.63 µg/mL | MIC50 of the component in combination [5, 12]: <0.078 µg/mL | MIC50 ([6]; Staphylococcus aureus, USA300, individual component, read-out: MIC50): 0.63 µg/mL | MIC50 of the component in combination ([6]; garvicin KS + micrococcin P1): 0.156 µg/mL | MIC50 of the component in combination [6, 12]: 0.63 µg/mL | MIC [7]: 1.8 µg/mL | MIC of the antimicrobial in comb. with GarKS [8]: 0.16 µg/mL | MIC [8, 14]: 2.5 µg/mL | MIC of the antimicrobial in comb. with GarKS [9]: 0.16 µg/mL | MIC [9, 14]: 2.5 µg/mL | MIC of the antimicrobial in comb. with GarKS [10]: 0.16 µg/mL | MIC of the antimicrobial in comb. with GarKS ([11]; All three strains): 0.16 µg/mL | MIC of the component when combined ([11]; MP1 with PenG): 0.16 to 0.3 µg/mL | reduction of MIC when combined ([11]; MP1 with PenG): 8-16 times | MIC of the component when GarKS and MP1 are combined ([11]; checkerboard assay): 0.16 µg/mL | MIC of the component when combined [11, 15]: 0.08 µg/mL | reduction of MIC when combined [11, 15]: about 30 times
